Measurements as given in BindingDB's records for doi:10.1021/jm034206x (Boehringer Ingelheim (Canada), 2003).
pIC50: −log10 of the molar value.

biological target: T1, Replication protein E1 (Human papillomavirus 11, UniProt P04014); assay: ChEBML_84985
T1 sequence (P04014 whole entry): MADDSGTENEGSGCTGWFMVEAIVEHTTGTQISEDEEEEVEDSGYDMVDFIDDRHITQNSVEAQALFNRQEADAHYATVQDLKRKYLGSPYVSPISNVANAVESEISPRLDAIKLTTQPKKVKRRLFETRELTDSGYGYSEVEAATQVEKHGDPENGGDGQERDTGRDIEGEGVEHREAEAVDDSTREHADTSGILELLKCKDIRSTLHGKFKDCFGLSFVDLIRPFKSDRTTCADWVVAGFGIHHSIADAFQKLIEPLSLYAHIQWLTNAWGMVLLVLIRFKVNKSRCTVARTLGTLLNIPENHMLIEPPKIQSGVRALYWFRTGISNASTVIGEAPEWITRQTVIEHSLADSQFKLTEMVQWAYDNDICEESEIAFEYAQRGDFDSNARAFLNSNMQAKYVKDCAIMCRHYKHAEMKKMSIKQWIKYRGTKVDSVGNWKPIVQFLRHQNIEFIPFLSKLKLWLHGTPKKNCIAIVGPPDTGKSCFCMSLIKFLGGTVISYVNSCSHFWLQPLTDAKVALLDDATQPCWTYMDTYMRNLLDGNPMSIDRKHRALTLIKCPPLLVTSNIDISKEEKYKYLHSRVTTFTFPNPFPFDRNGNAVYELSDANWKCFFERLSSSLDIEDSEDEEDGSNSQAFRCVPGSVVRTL
Source text: Ability to inhibit in vitro ATPase activity of human papillomavirus (HPV6) E1 helicase

`O=C(O)CS(=O)(=O)c1ccc(-c2cccc(C(=O)NCc3cccc4ccccc34)c2)cc1` [{3'-[(Naphthalen-1-ylmethyl)-carbamoyl]-biphenyl-4-sulfonyl}-acetic acid] showed a pIC50 of 8.37.

biological target: Replication protein E1 (Human papillomavirus type 6); assay: Ability to inhibit in vitro ATPase activity of human papillomavirus (HPV6) E1 helicase

`O=C(O)CS(=O)(=O)c1ccc(-c2ccc(CC(=O)Nc3ccccc3)cc2)cc1` [(4'-Phenylcarbamoylmethyl-biphenyl-4-sulfonyl)-acetic acid] and `O=C(O)CS(=O)(=O)c1ccc(-c2cccc(CC(=O)Nc3ccccc3)c2)cc1` [{3'-[(phenylcarbamoyl)-methyl]-biphenyl-4-sulfonyl}-acetic acid] are within 0.2 log units of each other in pIC50: 6.80 for the first, 6.96 for the second.

First: O=C(O)CS(=O)(=O)c1ccc(NCCc2ccccc2)cc1 [(4-Phenethylamino-benzenesulfonyl)-acetic acid]
Second: O=C(O)CS(=O)(=O)c1ccc(Sc2ccccc2)cc1 [(4-Phenylsulfanyl-benzenesulfonyl)-acetic acid]
The pIC50 of the first is higher: 4.17 for the first, less than 4.10 for the second. The first is the more potent here.

`O=C(O)CS(=O)(=O)c1ccc(-c2nccs2)cc1` [(4-Thiazol-2-yl-benzenesulfonyl)-acetic acid] and `Cc1nc(-c2ccc(S(=O)(=O)CC(=O)O)cc2)cs1` [[4-(2-Methyl-thiazol-4-yl)-benzenesulfonyl]-acetic acid] are within 0.2 log units of each other in pIC50: 4.70 for the first, 4.52 for the second.

Going from `O=C(O)CS(=O)(=O)c1ccc(-c2ccc(C(=O)N(Cc3ccccc3)Cc3ccccc3)cc2)cc1` [(4'-Dibenzylcarbamoyl-biphenyl-4-sulfonyl)-acetic acid] to `O=C(O)CS(=O)(=O)c1ccc(-c2ccc(C(=O)NCc3ccccc3)cc2)cc1` [(4'-Benzylcarbamoyl-biphenyl-4-sulfonyl)-acetic acid], the pIC50 rises from 5.96 to 6.29 (0.33 log units).

Compared with `CS(=O)(=O)c1ccc(-c2ccccc2)cc1` [4-Methanesulfonyl-biphenyl], `CC(C(=O)O)S(=O)(=O)c1ccc(-c2ccccc2)cc1` (centres undefined) [2-(Biphenyl-4-sulfonyl)-propionic acid] is higher in pIC50: less than 4.10 for the first, 4.77 for the second.

Compared with `COc1cccc(-c2ccc(S(=O)(=O)CC(=O)O)cc2)c1` [(3'-Methoxy-biphenyl-4-sulfonyl)-acetic acid], `COc1ccc(-c2ccc(S(=O)(=O)CC(=O)O)cc2)cc1` [(4'-Methoxy-biphenyl-4-sulfonyl)-acetic acid] is 0.49 log units higher in pIC50: 5.40 for the first, 5.89 for the second.

`O=C(O)CS(=O)(=O)c1cccc(-c2ccccc2)c1` [(Biphenyl-3-sulfonyl)-acetic acid] and `O=C(O)CS(=O)(=O)c1cccc(COc2ccccc2)c1` [(3-Phenoxymethyl-benzenesulfonyl)-acetic acid] cannot be ordered by pIC50: less than 4.10 for the first, less than 4.10 for the second.

First: O=C(O)C(F)S(=O)(=O)c1ccc(-c2ccccc2)cc1 (centres undefined) [(Biphenyl-4-sulfonyl)-fluoro-acetic acid]
Second: CC(C)(C(=O)O)S(=O)(=O)c1ccc(-c2ccccc2)cc1 [2-(Biphenyl-4-sulfonyl)-2-methyl-propionic acid]
The pIC50 of the first is higher: 5.19 for the first, less than 4.10 for the second. The first is the more potent here.

Compared with `C[C@@H](NC(=O)c1cccc(-c2ccc(S(=O)(=O)CC(=O)O)cc2)c1)c1ccccc1` [[3'-((R)-1-Phenyl-ethylcarbamoyl)-biphenyl-4-sulfonyl]-acetic acid], `C[C@H](NC(=O)c1cccc(-c2ccc(S(=O)(=O)CC(=O)O)cc2)c1)c1ccccc1` [[3'-(1-(S)-phenyl-ethylcarbamoyl)-biphenyl-4-sulfonyl]-acetic acid] is 1.60 log units lower in pIC50: 7.37 for the first, 5.77 for the second.

`O=C(O)CS(=O)(=O)c1ccc(-c2cccc(CC(=O)NCc3ccccc3)c2)cc1` [[3'-(Benzylcarbamoyl-methyl)-biphenyl-4-sulfonyl]-acetic acid] and `O=C(O)CS(=O)(=O)c1ccc(-c2ccc(CC(=O)NCc3ccccc3)cc2)cc1` [(4'-Benzylcarbamoylmethyl-biphenyl-4-sulfonyl)-acetic acid] are within 0.2 log units of each other in pIC50: 6.52 for the first, 6.47 for the second.

Compared with `O=C(NCc1cccc2ccccc12)c1cccc(-c2ccc(C(=O)C(F)(F)P(=O)(O)O)cc2)c1` [(1,1-Difluoro-2-{3'-[(naphthalen-1-ylmethyl)-carbamoyl]-biphenyl-4-yl}-2-oxo-ethyl)-phosphonic acid], `CS(=O)(=O)c1ccc(-c2cccc(C(=O)NCc3cccc4ccccc34)c2)cc1` [4'-Methanesulfonyl-biphenyl-3-carboxylic acid (naphthalen-1-ylmethyl)-amide] is lower in pIC50: 6.13 for the first, less than 4.10 for the second. The first is the more potent here.

Compared with `O=C(O)CS(=O)(=O)c1ccc(-c2ccc(C(=O)N3CCCCC3)cc2)cc1` [[4'-(Piperidine-1-carbonyl)-biphenyl-4-sulfonyl]-acetic acid], `O=C(O)CS(=O)(=O)c1ccc(-c2cccc(C(=O)N3CCOCC3)c2)cc1` [[3'-(Morpholine-4-carbonyl)-biphenyl-4-sulfonyl]-acetic acid] is 0.82 log units lower in pIC50: 5.48 for the first, 4.66 for the second.

Going from `O=C(O)CS(=O)(=O)c1ccc(-c2cccc(CC(=O)N[C@H]3CCc4ccccc43)c2)cc1` [[3'-((S)-Indan-1-ylcarbamoylmethyl)-biphenyl-4-sulfonyl]-acetic acid] to `Cc1ccccc1CNC(=O)c1cccc(-c2ccc(S(=O)(=O)CC(=O)O)cc2)c1` [[3'-(2-methyl-benzylcarbamoyl)-biphenyl-4-sulfonyl]-acetic acid], the pIC50 falls from 7.70 to 7.49 (0.21 log units). The first is the more potent here.

Going from `O=C(O)CS(=O)(=O)c1ccc(-c2ccc3c(c2)OCO3)cc1` [(4-Benzo[1,3]dioxol-5-yl-benzenesulfonyl)-acetic acid] to `O=C(O)CS(=O)(=O)c1ccc(-c2cccc3ccccc23)cc1` [(4-Naphthalen-1-yl-benzenesulfonyl)-acetic acid], the pIC50 falls from 5.89 to 5.27 (0.62 log units). The first is the more potent here.

Compared with `CN(C(=O)c1ccc(-c2ccc(S(=O)(=O)CC(=O)O)cc2)cc1)c1ccccc1` [[4'-(Methyl-phenyl-carbamoyl)-biphenyl-4-sulfonyl]-acetic acid], `O=C(O)CS(=O)(=O)c1ccc(-c2ccc(C(=O)Nc3ccccc3)cc2)cc1` [(4'-Phenylcarbamoyl-biphenyl-4-sulfonyl)-acetic acid] is 0.57 log units higher in pIC50: 5.32 for the first, 5.89 for the second. The second is the more potent here.

`O=C(O)CSc1ccc(-c2ccccc2)cc1` [(Biphenyl-4-sulfanyl)-acetic acid] and `NC(=O)CS(=O)(=O)c1ccc(-c2ccccc2)cc1` [2-(Biphenyl-4-sulfonyl)-acetamide] cannot be ordered by pIC50: less than 4.10 for the first, less than 4.10 for the second.

Going from `O=C(O)CS(=O)(=O)c1ccc2ccccc2c1` [(Naphthalene-2-sulfonyl)-acetic acid] to `O=C(O)CS(=O)(=O)c1ccc(-c2cccc(C(=O)Nc3ccccc3)c2)cc1` [(3'-Phenylcarbamoyl-biphenyl-4-sulfonyl)-acetic acid], the pIC50 rises from 4.40 to 6.38 (1.98 log units). The second is the more potent here.

Compared with `Cc1cccc(CNC(=O)c2cccc(-c3ccc(S(=O)(=O)CC(=O)O)cc3)c2)c1C` [[3'-(2,3-dimethyl-benzylcarbamoyl)-biphenyl-4-sulfonyl]-acetic acid], `Cc1cccc(CNC(=O)c2cccc(-c3ccc(S(=O)(=O)CC(=O)O)cc3)c2)c1` [[3'-(3-methyl-benzylcarbamoyl)-biphenyl-4-sulfonyl]-acetic acid] is 0.47 log units lower in pIC50: 8.04 for the first, 7.57 for the second.

First: CC(=O)NCCNC(=O)Cc1ccc(-c2ccc(S(=O)(=O)CC(=O)O)cc2)cc1 [{4'-[(2-Acetylamino-ethylcarbamoyl)-methyl]-biphenyl-4-sulfonyl}-acetic acid]
Second: O=S(=O)(O)CS(=O)(=O)c1ccc(-c2ccccc2)cc1 [(Biphenyl-4-sulfonyl)-methanesulfonic acid]
The pIC50 of the first is 1.23 log units higher: 5.72 for the first, 4.49 for the second. The first is the more potent here.
